According to US7238493B2, “Acetylation of pRb by p300 assay method for compounds which modulate this process” (The University Court of the University of Glasgow, priority 2000, dated 2007):
Entries after “also recorded” stand apart in the source; their conditions may differ.

System: pRb/MDM2 complex
Experiment: pRb immunoprecipitation and anti-MDM2 immunoblot from TSA-treated T98G cells
Type: cell-based
Conditions: TSA 5 μM for 18-20 h, FIG. 4g
Method: Conversely, conditions that enhance acetylation would be expected to promote the interaction of pRb with MDM2. To this end, we treated T98G cells with trichostatin A (TSA), which blocks histone deacetylase (HDAC) activity 18 and thereafter assessed the interaction between pRb and MDM2.
For immunoprecipitation of endogenous acetylated pRb, cell pellets collected from SAOS2, U2OS, T98G, A31, and HEK293 cells were lysed in IPH buffer (50 mM Tris pH 8.0, 150 mM NaCl, 0.5% NP-40, protease inhibitor cocktail (Roche), 5mM EDTA, 5 μM TSA (Sigma)). The protein concentration of the extracts was determined by Bradford assay (BioRad). Protein-A-agarose was first incubated with anti-Rb antibody IF8 and C15 for 1-2 h at 4 C. […] Proteins bound to the beads were elute with 3×SDS loading buffer and analysed by Western blotting using appropriated antibodies. […]
Domains in E1A for p300-Dependent Acetylation of pRb and Acetylated pRb Binds to MDM2. • a) In vitro acetylation assay in which Flag-tagged p3001135-2414 (0.3 μg) together with GST-pRb (2 μg) was incubated with either wild-type GST-E1A, GST-Δ36 or GST-pm928 (1 μg) as indicated. The effect of the buffer (track 5) or GST (1 μg; track 1) alone was also assessed. The quantification of the level of p300 autoacetylation (b) and pRb acetylation (c) in the presence of the E1A derivatives is shown. […]

**Q.** CC(/C=C/C(=O)NO)=C\[C@@H](C)C(=O)c1ccc(N(C)C)cc1 [TSA, trichostatin A] was tested. Which “interaction between pRb and MDM2 (pRb/MDM2 complex in pRb immunoprecipitate)” value did it give?
**A.** The value was “presence of MDM2 in the pRb immunocomplex; also recorded: clearly detectable; also recorded: augments the interaction between pRb and MDM2”.
